Data on 18 compounds can be found in PubChem BioAssay (NCI).

Several values for one entry are separate records, joined by “and”; a condition that tells them apart may be missing. Identical values can stand only once.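 96-well plates; 48 h exposure; 5 concentrations. Endpoints by linear interpolation between flanking doses. Not reached: highest tested concentration assigned. Here, GI50 denotes the concentration required for 50% inhibition of growth. TGI: concentration producing complete growth inhibition.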

One assay concerns ACHN renal. Briefly: inhibition of tumour cell growth, NCI panel, 48 h.
For `CCC[CH2][Sn]([CH2]CCC)([O]C(=O)CN)[O]C(=O)CN`, the GI50 was 48.1 µM and the TGI is above 100 µM.
For `O=C(Nc1ccc(C(F)(F)F)cc1[N+](=O)[O-])C(=O)C1NC(=S)NC1=O` (stereo not drawn), the TGI is above 100 µM.
For `N[C@H](C(=O)O)[C@@H]1CC(Cl)=NO1`, the GI50 is 28.4 µM and the TGI was above 1000 µM.
The compound `O=C(Nc1cccc(O)c1)C(=O)C1C(=O)NC(=S)NC1=O` showed a TGI above 100 µM.
`O=C1N/C(=C\[N+](=O)[O-])c2ccccc21` yielded a TGI above 100 µM.
The same measure, in the same setting: to `COC(=O)C(=O)CC(=O)CCn1[nH]c(=O)c(Cl)c(Cl)c1=O` belongs above 100 µM; to `Nc1ncnc2c1ncn2C1C=C(CO)C(O)C1O` (stereo not drawn), 66.9 µM; to `Cc1cc(N(CC(C)Br)CC(C)Br)ccc1N=Nc1ccccc1C(=O)O` (stereo not drawn), 13.5 µM.
On the same count and under the same terms, to `CN(C)CCC(=O)N1C/C(=C\c2ccc(Cl)c(Cl)c2)C(=O)/C(=C/c2ccc(Cl)c(Cl)c2)C1` belongs 1.05 µM.
For the compound `CCOC(=O)[CH-]C(=O)C12CC3CC(CC(C3)C1)C2.CCOC(=O)[CH-]C(=O)C12CC3CC(CC(C3)C1)C2.CC[O-].CC[O-].[Ti+4]`, the GI50 is above 100 µM and the TGI was above 100 µM.
`COc1ccc2nc3cc(Cl)ccc3c(Sc3ccc([N+](=O)[O-])cc3C)c2c1` showed a TGI above 100 µM.

For the next assay, the system named is NCI-H226 lung. Nature of the assay: inhibition of tumour cell growth, NCI panel, 48 h.
In turn, `N#CCC(=O)N/N=C1/C(=O)N(c2ccc(Cl)cc2)C(=O)C(=O)C1c1nc2ccccc2s1` (stereo not drawn) registered a TGI above 100 µM.
On the same count and under the same terms, to `CCCCCCCCCCCC(=O)OCCOCCOCCOCCOCCOC(=O)CCCCCCCCCCC` belongs above 100 µM; to `O=C1COc2cc(NC(=S)Nc3ccccc3)ccc2N1`, above 100 µM.
In the case of `O=S(=O)(C1=CC(S(=O)(=O)c2ccccc2)CN(Cc2ccccc2)C1c1cccc2ccccc12)c1ccccc1` (stereo not drawn), the TGI was above 69 µM.
Same read-out and setting: under `O=C1C=C(Nc2ccccc2C(=O)CC(=O)C(=O)Nc2cccc([N+](=O)[O-])c2)c2ccccc2C1=O` stands above 100 µM; under `CNC(=O)OCc1nc(SSC(C)(C)C)n(C)c1COC(=O)NC`, 28.3 µM; under `O=C(Nc1ccc(Cl)cc1)C1C(=O)C(=O)N(c2ccc(Cl)cc2)C1=O` (stereo not drawn), above 100 µM.
For `CCC[CH2][Sn]([CH2]CCC)([O]C(=O)CN)[O]C(=O)CN`, the GI50 was above 100 µM and the TGI was above 100 µM.
For `O=C(Nc1ccc(C(F)(F)F)cc1[N+](=O)[O-])C(=O)C1NC(=S)NC1=O` (stereo not drawn), the TGI worked out at 24.1 µM.
As for `N[C@H](C(=O)O)[C@@H]1CC(Cl)=NO1`, the GI50 is 39.9 µM and 10.8 µM; the TGI is above 316 µM.
Compound `O=C(Nc1cccc(O)c1)C(=O)C1C(=O)NC(=S)NC1=O` registered a TGI above 100 µM.
`O=C1N/C(=C\[N+](=O)[O-])c2ccccc21` yielded a TGI above 100 µM.
`COC(=O)C(=O)CC(=O)CCn1[nH]c(=O)c(Cl)c(Cl)c1=O` gave a TGI above 100 µM.
On to `Nc1ncnc2c1ncn2C1C=C(CO)C(O)C1O` (stereo not drawn), for which the TGI is above 100 µM.
Take `Cc1cc(N(CC(C)Br)CC(C)Br)ccc1N=Nc1ccccc1C(=O)O` (stereo not drawn): the TGI worked out at 13.3 µM.
In turn, `CN(C)CCC(=O)N1C/C(=C\c2ccc(Cl)c(Cl)c2)C(=O)/C(=C/c2ccc(Cl)c(Cl)c2)C1` came in with a TGI of 1.86 µM.
The same measure, in the same setting: to `COc1ccc2nc3cc(Cl)ccc3c(Sc3ccc([N+](=O)[O-])cc3C)c2c1` belongs above 100 µM.

For a further assay, the system named is A549 NSCLC. Nature of the assay: inhibition of tumour cell growth, NCI panel, 48 h.
On to `N#CCC(=O)N/N=C1/C(=O)N(c2ccc(Cl)cc2)C(=O)C(=O)C1c1nc2ccccc2s1` (stereo not drawn), for which the TGI was above 100 µM.
With `CCCCCCCCCCCC(=O)OCCOCCOCCOCCOCCOC(=O)CCCCCCCCCCC`, the TGI was above 100 µM.
The compound `O=C1COc2cc(NC(=S)Nc3ccccc3)ccc2N1` had a TGI above 100 µM.
The compound `O=S(=O)(C1=CC(S(=O)(=O)c2ccccc2)CN(Cc2ccccc2)C1c1cccc2ccccc12)c1ccccc1` (stereo not drawn) had a TGI above 69 µM.
`O=C1C=C(Nc2ccccc2C(=O)CC(=O)C(=O)Nc2cccc([N+](=O)[O-])c2)c2ccccc2C1=O` returned a TGI above 100 µM.
`CNC(=O)OCc1nc(SSC(C)(C)C)n(C)c1COC(=O)NC` showed a TGI of 28 µM.
`O=C(Nc1ccc(Cl)cc1)C1C(=O)C(=O)N(c2ccc(Cl)cc2)C1=O` (stereo not drawn) came in with a TGI above 100 µM.
`CCC[CH2][Sn]([CH2]CCC)([O]C(=O)CN)[O]C(=O)CN`: the GI50 was above 100 µM and the TGI is above 100 µM.
Turning to `O=C(Nc1ccc(C(F)(F)F)cc1[N+](=O)[O-])C(=O)C1NC(=S)NC1=O` (stereo not drawn), the TGI was above 100 µM.
Regarding `N[C@H](C(=O)O)[C@@H]1CC(Cl)=NO1`, the GI50 is 6.06 µM and the TGI was 678 µM.
Turning to `O=C(Nc1cccc(O)c1)C(=O)C1C(=O)NC(=S)NC1=O`, the TGI is above 100 µM.
Compound `O=C1N/C(=C\[N+](=O)[O-])c2ccccc21` registered a TGI above 100 µM.
In turn, `COC(=O)C(=O)CC(=O)CCn1[nH]c(=O)c(Cl)c(Cl)c1=O` displayed a TGI above 100 µM.
`Nc1ncnc2c1ncn2C1C=C(CO)C(O)C1O` (stereo not drawn) yielded a TGI above 100 µM.
Take `Cc1cc(N(CC(C)Br)CC(C)Br)ccc1N=Nc1ccccc1C(=O)O` (stereo not drawn): the TGI is 19.9 µM.
Compound `CN(C)CCC(=O)N1C/C(=C\c2ccc(Cl)c(Cl)c2)C(=O)/C(=C/c2ccc(Cl)c(Cl)c2)C1` showed a TGI of 2.05 µM.
With `CCOC(=O)[CH-]C(=O)C12CC3CC(CC(C3)C1)C2.CCOC(=O)[CH-]C(=O)C12CC3CC(CC(C3)C1)C2.CC[O-].CC[O-].[Ti+4]`, the GI50 was above 100 µM and the TGI is above 100 µM.
Compound `COc1ccc2nc3cc(Cl)ccc3c(Sc3ccc([N+](=O)[O-])cc3C)c2c1` displayed a TGI above 100 µM.

Another assay relates to MOLT-4 leukemia. Nature of the assay: inhibition of tumour cell growth, NCI panel, 48 h.
`CCCCCCCCCCCC(=O)OCCOCCOCCOCCOCCOC(=O)CCCCCCCCCCC`: the TGI was above 100 µM.
Same read-out and setting: under `O=C1COc2cc(NC(=S)Nc3ccccc3)ccc2N1` stands above 100 µM; under `O=S(=O)(C1=CC(S(=O)(=O)c2ccccc2)CN(Cc2ccccc2)C1c1cccc2ccccc12)c1ccccc1` (stereo not drawn), above 69 µM; under `O=C1C=C(Nc2ccccc2C(=O)CC(=O)C(=O)Nc2cccc([N+](=O)[O-])c2)c2ccccc2C1=O`, above 100 µM.
`CNC(=O)OCc1nc(SSC(C)(C)C)n(C)c1COC(=O)NC` had a TGI of 4.16 µM.
On to `O=C(Nc1ccc(Cl)cc1)C1C(=O)C(=O)N(c2ccc(Cl)cc2)C1=O` (stereo not drawn), for which the TGI was above 100 µM.
As to `CCC[CH2][Sn]([CH2]CCC)([O]C(=O)CN)[O]C(=O)CN`, the GI50 is 29.1 µM and the TGI was above 100 µM.
As for `O=C(Nc1ccc(C(F)(F)F)cc1[N+](=O)[O-])C(=O)C1NC(=S)NC1=O` (stereo not drawn), the TGI was above 100 µM.
As to `N[C@H](C(=O)O)[C@@H]1CC(Cl)=NO1`, the GI50 was 5.21 µM and the TGI is above 806 µM.
In the case of `O=C(Nc1cccc(O)c1)C(=O)C1C(=O)NC(=S)NC1=O`, the TGI is above 100 µM.
In turn, `O=C1N/C(=C\[N+](=O)[O-])c2ccccc21` registered a TGI above 100 µM.
As to `Nc1ncnc2c1ncn2C1C=C(CO)C(O)C1O` (stereo not drawn), the TGI came out at 30.9 µM.
The same measure, in the same setting: to `Cc1cc(N(CC(C)Br)CC(C)Br)ccc1N=Nc1ccccc1C(=O)O` (stereo not drawn) belongs above 100 µM; to `CN(C)CCC(=O)N1C/C(=C\c2ccc(Cl)c(Cl)c2)C(=O)/C(=C/c2ccc(Cl)c(Cl)c2)C1`, 1.7 µM.
On to `CCOC(=O)[CH-]C(=O)C12CC3CC(CC(C3)C1)C2.CCOC(=O)[CH-]C(=O)C12CC3CC(CC(C3)C1)C2.CC[O-].CC[O-].[Ti+4]`, for which the GI50 is above 100 µM and the TGI was above 100 µM.
As to `COc1ccc2nc3cc(Cl)ccc3c(Sc3ccc([N+](=O)[O-])cc3C)c2c1`, the TGI is above 100 µM.

For another assay, the system named is DMS 273 small cell lung. Nature of the assay: inhibition of tumour cell growth, NCI panel, 48 h.
In turn, `N#CCC(=O)N/N=C1/C(=O)N(c2ccc(Cl)cc2)C(=O)C(=O)C1c1nc2ccccc2s1` (stereo not drawn) gave a TGI above 100 µM.
On to `CCCCCCCCCCCC(=O)OCCOCCOCCOCCOCCOC(=O)CCCCCCCCCCC`, for which the TGI is above 100 µM.
On the same count and under the same terms, under `O=C1COc2cc(NC(=S)Nc3ccccc3)ccc2N1` stands above 100 µM.
`O=S(=O)(C1=CC(S(=O)(=O)c2ccccc2)CN(Cc2ccccc2)C1c1cccc2ccccc12)c1ccccc1` (stereo not drawn): the TGI was above 69 µM.
`O=C1C=C(Nc2ccccc2C(=O)CC(=O)C(=O)Nc2cccc([N+](=O)[O-])c2)c2ccccc2C1=O` yielded a TGI above 100 µM.
Compound `CNC(=O)OCc1nc(SSC(C)(C)C)n(C)c1COC(=O)NC` gave a TGI of 17.3 µM.
For `O=C(Nc1ccc(Cl)cc1)C1C(=O)C(=O)N(c2ccc(Cl)cc2)C1=O` (stereo not drawn), the TGI is above 100 µM.
Turning to `CCC[CH2][Sn]([CH2]CCC)([O]C(=O)CN)[O]C(=O)CN`, the GI50 is 38.6 µM and the TGI was above 100 µM.
The compound `O=C(Nc1ccc(C(F)(F)F)cc1[N+](=O)[O-])C(=O)C1NC(=S)NC1=O` (stereo not drawn) showed a TGI above 100 µM.
Compound `N[C@H](C(=O)O)[C@@H]1CC(Cl)=NO1` came in with a TGI of 328 µM.
Turning to `O=C(Nc1cccc(O)c1)C(=O)C1C(=O)NC(=S)NC1=O`, the TGI is above 100 µM.
Still for that read-out and setting: to `O=C1N/C(=C\[N+](=O)[O-])c2ccccc21` belongs above 100 µM; to `COC(=O)C(=O)CC(=O)CCn1[nH]c(=O)c(Cl)c(Cl)c1=O`, above 100 µM.
In turn, `Nc1ncnc2c1ncn2C1C=C(CO)C(O)C1O` (stereo not drawn) yielded a TGI of 28.3 µM.
The same measure, in the same setting: to `Cc1cc(N(CC(C)Br)CC(C)Br)ccc1N=Nc1ccccc1C(=O)O` (stereo not drawn) belongs 20.5 µM.
`CN(C)CCC(=O)N1C/C(=C\c2ccc(Cl)c(Cl)c2)C(=O)/C(=C/c2ccc(Cl)c(Cl)c2)C1` had a TGI of 0.316 µM.
As for `CCOC(=O)[CH-]C(=O)C12CC3CC(CC(C3)C1)C2.CCOC(=O)[CH-]C(=O)C12CC3CC(CC(C3)C1)C2.CC[O-].CC[O-].[Ti+4]`, the GI50 was above 100 µM and the TGI was above 100 µM.
In turn, `COc1ccc2nc3cc(Cl)ccc3c(Sc3ccc([N+](=O)[O-])cc3C)c2c1` came in with a TGI above 100 µM.
